Reference: patent US10975056B2 (GlaxoSmithKline Intellectual Property Development Limited, priority 2016, dated 2021)
“And” between values parts separate entries of the source, which are not always exact repeats. Equal values may be shown once. Where a name gives a salt, the structure may show the parent alone. Read-outs that look alike come from different tables or passages of the source.

Assays:
[1] = tested on: erythroid progenitor cells (EPCs); assay: Fetal hemoglobin (HbF) ELISA in day 7 erythroid progenitor cells; type: cell-based, human; conditions: Homo sapiens, Erythroid progenitor cell, HbF ELISA, day 7 EPCs, 5 days; read-out: EPC ELISA (pEC50 category) (converted);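 further: for fetal hemoglobin induction normalized to vehicle-treated cells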
How it was run: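 HbF induction was read by anti-HbF sandwich ELISA (HRP/TMB, OD450) on lysates and normalized to vehicle-treated cells. Cells were day 7 erythroid progenitors derived from human bone marrow CD34+ cells, seeded at 1,000/well with 3 U/mL rhEPO. Compound was given for 5 days at 37 °C at final concentrations […].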

DNMT1 = DNMT1 (Homo sapiens, UniProt P26358); assay: DNMT1 biochemical activity, breaklight assay and/or SPA assay
[2] = binned activity in either the breaklight or the SPA assay
[3] = binned activity in either the breaklight or the SPA assay, read-out: DNMT1 BioChemical (pIC50 category) (converted)

Chain of DNMT1 (P26358 whole entry, looked up): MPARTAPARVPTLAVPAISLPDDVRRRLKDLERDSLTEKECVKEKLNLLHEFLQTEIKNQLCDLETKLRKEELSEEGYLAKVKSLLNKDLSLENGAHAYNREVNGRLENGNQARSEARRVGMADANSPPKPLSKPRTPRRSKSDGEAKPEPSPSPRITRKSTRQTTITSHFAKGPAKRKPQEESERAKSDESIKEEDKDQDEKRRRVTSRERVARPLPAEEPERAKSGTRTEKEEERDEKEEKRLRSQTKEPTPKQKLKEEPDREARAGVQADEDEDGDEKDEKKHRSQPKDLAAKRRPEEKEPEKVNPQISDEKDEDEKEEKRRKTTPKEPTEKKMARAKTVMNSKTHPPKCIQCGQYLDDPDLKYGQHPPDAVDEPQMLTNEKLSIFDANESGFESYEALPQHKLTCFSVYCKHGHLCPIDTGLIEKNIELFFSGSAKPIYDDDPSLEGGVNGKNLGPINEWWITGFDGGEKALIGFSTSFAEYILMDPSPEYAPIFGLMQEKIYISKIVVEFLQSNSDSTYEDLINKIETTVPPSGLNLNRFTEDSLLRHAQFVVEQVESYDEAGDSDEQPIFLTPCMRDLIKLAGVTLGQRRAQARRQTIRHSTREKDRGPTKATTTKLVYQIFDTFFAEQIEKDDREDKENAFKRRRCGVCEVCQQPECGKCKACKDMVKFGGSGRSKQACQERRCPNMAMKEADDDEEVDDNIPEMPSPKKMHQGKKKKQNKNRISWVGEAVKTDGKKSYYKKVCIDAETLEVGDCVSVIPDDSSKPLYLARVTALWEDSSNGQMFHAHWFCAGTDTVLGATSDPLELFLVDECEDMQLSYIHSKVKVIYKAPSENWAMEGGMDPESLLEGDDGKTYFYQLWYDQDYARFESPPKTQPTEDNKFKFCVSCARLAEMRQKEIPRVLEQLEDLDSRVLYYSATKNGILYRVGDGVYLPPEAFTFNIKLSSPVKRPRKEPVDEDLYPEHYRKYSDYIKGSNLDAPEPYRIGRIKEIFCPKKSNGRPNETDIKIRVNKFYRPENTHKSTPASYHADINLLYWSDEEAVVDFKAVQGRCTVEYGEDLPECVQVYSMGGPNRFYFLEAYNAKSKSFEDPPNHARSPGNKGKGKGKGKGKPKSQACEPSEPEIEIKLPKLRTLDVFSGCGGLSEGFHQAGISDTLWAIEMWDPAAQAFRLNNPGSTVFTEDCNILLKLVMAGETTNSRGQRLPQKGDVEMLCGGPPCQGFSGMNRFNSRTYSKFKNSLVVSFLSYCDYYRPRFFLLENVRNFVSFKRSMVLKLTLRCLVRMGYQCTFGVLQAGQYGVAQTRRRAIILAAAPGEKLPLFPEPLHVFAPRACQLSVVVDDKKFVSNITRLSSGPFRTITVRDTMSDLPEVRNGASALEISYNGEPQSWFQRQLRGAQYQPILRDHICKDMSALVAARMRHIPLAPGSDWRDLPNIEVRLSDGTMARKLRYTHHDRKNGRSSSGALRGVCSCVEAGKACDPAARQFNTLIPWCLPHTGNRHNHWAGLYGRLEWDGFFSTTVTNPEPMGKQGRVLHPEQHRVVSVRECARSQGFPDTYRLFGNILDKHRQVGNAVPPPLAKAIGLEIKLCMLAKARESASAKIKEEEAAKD

| EC50 [1] [nM] | DNMT1 BioChemical (pIC50 category) (DNMT1; [2]) | IC50 (DNMT1; [3]) [nM] | IC50 (DNMT1; breaklight assay and/or SPA assay, repeated experimental runs, read-out: average pIC50 against DNMT1 (converted)) | Compound |
| --- | --- | --- | --- | --- |
| < 316 | D (Category D: ≥6.5) | – | – | CCc1c(C#N)c(SC(C(N)=O)c2ccccc2)nc(N(C)CCNCC(C)(C)C)c1C#N (stereo not shown) [Example 488, 2-((3,5-dicyano-4-ethyl-6-(methyl(2-(neopentylamino)ethyl)amino)pyridin-2-yl)thio)-2-phenylacetamide] |
| < 316 | D (Category D: ≥6.5) | – | – | CCc1c(C#N)c(SC(C(N)=O)c2ccccc2)nc(N(C)CCNC2(C)CC2)c1C#N (stereo not shown) [Example 489, 2-(3,5-dicyano-4-ethyl-6-(methyl(2-(1-methylcyclopropylamino)ethyl)amino)pyridin-2-ylthio)-2-phenylacetamide] |
| 316 to 1000 | D (Category D: ≥6.5) | – | – | CCc1c(C#N)c(SC(C(N)=O)c2ccccc2)nc(N(C)CCN2[C@@H](C)CC[C@@H]2C)c1C#N (stereo partly drawn) [Example 490, 2-((3,5-dicyano-6-((2-((2S,5S)-2,5-dimethylpyrrolidin-1-yl)ethyl)(methyl)amino)-4-ethylpyridin-2-yl)thio)-2-phenylacetamide] |
| < 316 | D (Category D: ≥6.5) | – | – | CCc1c(C#N)c(SC(C(N)=O)c2ccccc2)nc(N(C)CCNCCOC)c1C#N (stereo not shown) [Example 491, 2-((3,5-dicyano-4-ethyl-6-((2-((2-methoxyethyl)amino)ethyl)(methyl)amino)pyridin-2-yl)thio)-2-phenylacetamide] |
| < 316 | D (Category D: ≥6.5) | – | – | CCc1c(C#N)c(SC(C(N)=O)c2ccccc2)nc(N2CCC(N(C)CC(C)(C)OC)CC2)c1C#N (stereo not shown) [Example 492, 2-((3,5-dicyano-4-ethyl-6-(4-((2-methoxy-2-methylpropyl)(methyl)amino)piperidin-1-yl)pyridin-2-yl)thio)-2-phenylacetamide] |
| 316 to 1000 | D (Category D: ≥6.5) | – | – | CCc1c(C#N)c(SC(C(N)=O)c2ccccc2)nc(N(C)CCN(C)C)c1C#N (stereo not shown) [Example 493, 2-((3,5-dicyano-6-((2-(dimethylamino)ethyl)(methyl)amino)-4-ethylpyridin-2-yl)thio)-2-phenylacetamide] |
| < 316 | D (Category D: ≥6.5) | – | – | CCc1c(C#N)c(SC(C(N)=O)c2ccccc2)nc(N(C)CCN2CC[C@@H](O)C2)c1C#N (stereo partly drawn) [Example 494, 2-(3,5-dicyano-4-ethyl-6-((2-((R)-3-hydroxypyrrolidin-1-yl)ethyl)(methyl)amino)pyridin-2-ylthio)-2-phenylacetamide] |
| 1000 to 31600 | D (Category D: ≥6.5) | – | – | CCc1c(C#N)c(SC(C(N)=O)c2ccccc2)nc(N(C)CCNCCF)c1C#N (stereo not shown) [Example 495, 2-((3,5-dicyano-4-ethyl-6-((2-((2-fluoroethyl)amino)ethyl)(methyl)amino)pyridin-2-yl)thio)-2-phenylacetamide] |
| < 316 | – | 316 to 1000 | 316 to 1000 nM and 398 nM | CCc1c(C#N)c(SC(C(N)=O)c2ccccc2)nc(N2CCC(N3CCC(F)(F)C3)CC2)c1C#N (stereo not shown) [Example 496, 2-((3,5-dicyano-6-(4-(3,3-difluoropyrrolidin-1-yl)piperidin-1-yl)-4-ethylpyridin-2-yl)thio)-2-phenylacetamide] |
| 1000 to 31600 | D (Category D: ≥6.5) | – | – | CCc1c(C#N)c(SC(C(N)=O)c2ccccc2)nc(N2CCC(NCC(=O)O)CC2)c1C#N (stereo not shown) [Example 497, 2-((1-(6-((2-amino-2-oxo-1-phenylethyl)thio)-3,5-dicyano-4-ethylpyridin-2-yl)piperidin-4-yl)amino)acetic acid] |
| 316 to 1000 | D (Category D: ≥6.5) | – | – | CCc1c(C#N)c(SC(C(N)=O)c2ccccc2)nc(N(C)C2CC(N)C2)c1C#N (stereo not shown) [Example 498, 2-((6-((3-aminocyclobutyl)(methyl)amino)-3,5-dicyano-4-ethylpyridin-2-yl)thio)-2-phenylacetamide] |
| < 316 | D (Category D: ≥6.5) | – | – | CCc1c(C#N)c(SCc2ccc(CS(C)(=O)=O)cc2)nc(N2CCC(N)CC2)c1C#N [Example 499, 2-(4-aminopiperidin-1-yl)-4-ethyl-6-((4-((methylsulfonyl)methyl)benzyl)thio)pyridine-3,5-dicarbonitrile] |
| 1000 to 31600 | D (Category D: ≥6.5) | – | – | CCc1c(C#N)c(SCc2ccc(N(C)S(C)(=O)=O)cc2)nc(N(C)CCNCCF)c1C#N [Example 500] |
| 316 to 1000 | D (Category D: ≥6.5) | – | – | CCc1c(C#N)c(SC(C(N)=O)c2ccccc2)nc(N2CCC(N3CCOCC3)CC2)c1C#N (stereo not shown) [Example 503, 2-((3,5-dicyano-4-ethyl-6-(4-morpholinopiperidin-1-yl)pyridin-2-yl)thio)-2-phenylacetamide] |
| 1000 to 31600 | D (Category D: ≥6.5) | – | – | CCc1c(C#N)c(SC(C(N)=O)c2ccccc2)nc(N2CCN(CCO)C(=O)C2)c1C#N (stereo not shown) [Example 504, 2-((3,5-dicyano-4-ethyl-6-(4-(2-hydroxyethyl)-3-oxopiperazin-1-yl)pyridin-2-yl)thio)-2-phenylacetamide] |
| < 316 | D (Category D: ≥6.5) | – | – | CCc1c(C#N)c(SC(C(N)=O)c2ccc(F)cc2)nc(N2CCC(N3CCCC3)CC2)c1C#N (stereo not shown) [Example 505, 2-((3,5-dicyano-4-ethyl-6-(4-(pyrrolidin-1-yl)piperidin-1-yl)pyridin-2-yl)thio)-2-(4-fluorophenyl)acetamide] |
| < 316 | D (Category D: ≥6.5) | – | – | CCc1c(C#N)c(SC(C(N)=O)c2ccccc2)nc(N2CCC(NC)C(F)C2)c1C#N (stereo not shown) [Example 507, 2((3,5-dicyano-4-ethyl-6-(3-fluoro-4-(methylamino)piperidin-1-yl)pyridin-2-yl)thio)-2-phenylacetamide] |
| < 316 | D (Category D: ≥6.5) | – | – | CCc1c(C#N)c(SC(C(N)=O)c2ccccc2)nc(N2CCC(NCCOC)C(F)C2)c1C#N (stereo not shown) [Example 510, 2((3,5-dicyano-4-ethyl-6-(3-fluoro-4-((2-methoxyethyl)amino)piperidin-1-yl)pyridin-2-yl)thio)-2-phenylacetamide] |
| < 316 | D (Category D: ≥6.5) | – | – | CCc1c(C#N)c(SC(C(N)=O)c2ccccc2)nc(N(C)CCN2CCCC2)c1C#N (stereo not shown) [Example 511, 2-((3,5-dicyano-4-ethyl-6-(methyl(2-(pyrrolidin-1-yl)ethyl)amino)pyridin-2-yl)thio)-2-phenylacetamide] |
| < 316 | D (Category D: ≥6.5) | – | – | CCc1c(C#N)c(SC(C(N)=O)c2ccccc2)nc(N2CCC(CN(C)C)C2)c1C#N (stereo not shown) [Example 512, 2-((3,5-dicyano-6-(3-((dimethylamino)methyl)pyrrolidin-1-yl)-4-ethylpyridin-2-yl)thio)-2-phenylacetamide] |
| < 316 | – | < 316 | – | CCc1c(C#N)c(SC(C(N)=O)c2ccc(F)cc2)nc(N2CCC(NCC(C)(C)O)CC2)c1C#N (stereo not shown) [Example 513, 2-((3,5-dicyano-4-ethyl-6-(4-((2-hydroxy-2-methylpropyl)amino)piperidin-1-yl)pyridin-2-yl)thio)-2-(4-fluorophenyl)acetamide] |
| < 316 | D (Category D: ≥6.5) | – | – | CCc1c(C#N)c(SC(C(N)=O)c2ccccc2)nc(N(C)CCN(CC)CC)c1C#N (stereo not shown) [Example 515, 2-((3,5-dicyano-6-((2-(diethylamino)ethyl)(methyl)amino)-4-ethylpyridin-2-yl)thio)-2-phenylacetamide] |
| < 316 | D (Category D: ≥6.5) | – | – | CCc1c(C#N)c(SC(C(N)=O)c2ccccc2)nc(N(C)CCN2CC[C@@H](N(C)C)C2)c1C#N (stereo partly drawn) [Example 516, 2-((3,5-dicyano-6-((2-((R)-3-(dimethylamino)pyrrolidin-1-yl)ethyl)(methyl)amino)-4-ethylpyridin-2-yl)thio)-2-phenylacetamide] |
| < 316 | D (Category D: ≥6.5) | – | – | CCc1c(C#N)c(SC(C(N)=O)c2ccccc2)nc(N(C)CCN2CC[C@H](N(C)C)C2)c1C#N (stereo partly drawn) [Example 517, 2-((3,5-dicyano-6-((2-((S)-3-(dimethylamino)pyrrolidin-1-yl)ethyl)(methyl)amino)-4-ethylpyridin-2-yl)thio)-2-phenylacetamide] |

| Compound | EC50 [1] [nM] | DNMT1 BioChemical (pIC50 category) (DNMT1; [2]) | IC50 (DNMT1; [3]) [nM] | IC50 (DNMT1; breaklight assay and/or SPA assay, repeated experimental runs, read-out: average pIC50 against DNMT1 (converted)) |
| --- | --- | --- | --- | --- |
| CCc1c(C#N)c(S[C@@H](C(N)=O)c2ccccc2)nc(N2CC[C@@H](N)[C@@H](F)C2)c1C#N [Example 506, (R)-2-((6-((3S,4R)-4-amino-3-fluoropiperidin-1-yl)-3,5-dicyano-4-ethylpyridin-2-yl)thio)-2-phenylacetamide 2,2,2-trifluoroacetate] | < 316 | D (Category D: ≥6.5) | – | – |
| CCc1c(C#N)c(S[C@@H](C(N)=O)c2ccccc2)nc(N2CC[C@H](N)[C@H](F)C2)c1C#N [Example 509, (R)-2-((6-((3R,4S)-4-amino-3-fluoropiperidin-1-yl)-3,5-dicyano-4-ethylpyridin-2-yl)thio)-2-phenylacetamide • (0.67)2,2,2-trifluoroacetate • (0.33)methanesulfonate] | < 316 | D (Category D: ≥6.5) | – | – |
| CCc1c(C#N)c(S[C@@H](C(N)=O)c2ccccc2)nc(N2CC[C@@H](N)[C@H](F)C2)c1C#N [Example 518, (R)-2-((6-((3R,4R)-4-amino-3-fluoropiperidin-1-yl)-3,5-dicyano-4-ethylpyridin-2-yl)thio)-2-phenylacetamide, Trifluoroacetic acid salt] | < 316 | D (Category D: ≥6.5) | – | – |
